Target: T1, Estrogen Receptor (ERα) in MCF-7 human ductal carcinoma breast cell line (Homo sapiens, UniProt P03372)
T1 construct: endogenous in cells; host or cells: MCF-7
T1 sequence (P03372 1-595): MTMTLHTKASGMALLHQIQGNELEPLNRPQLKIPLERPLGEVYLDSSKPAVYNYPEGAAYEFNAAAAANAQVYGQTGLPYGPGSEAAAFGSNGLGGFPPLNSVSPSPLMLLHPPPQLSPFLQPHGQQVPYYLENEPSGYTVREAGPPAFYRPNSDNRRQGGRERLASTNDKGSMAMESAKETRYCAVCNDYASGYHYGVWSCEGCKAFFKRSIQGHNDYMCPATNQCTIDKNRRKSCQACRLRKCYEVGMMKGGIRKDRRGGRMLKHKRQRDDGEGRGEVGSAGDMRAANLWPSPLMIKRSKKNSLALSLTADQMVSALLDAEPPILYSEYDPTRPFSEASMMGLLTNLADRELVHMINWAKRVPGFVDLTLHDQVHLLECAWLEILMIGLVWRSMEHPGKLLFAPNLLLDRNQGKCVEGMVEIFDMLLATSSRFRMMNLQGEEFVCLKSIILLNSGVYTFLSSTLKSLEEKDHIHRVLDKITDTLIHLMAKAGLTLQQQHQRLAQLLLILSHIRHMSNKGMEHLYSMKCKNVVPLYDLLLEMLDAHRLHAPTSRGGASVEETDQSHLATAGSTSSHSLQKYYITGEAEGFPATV
Assay: MCF-7 ER degradation assay (cell based immuno-fluorescence)
Conditions: MCF-7 cells; for ER degradation ≥ 90% at 0.3 μM: ER degradation by fulvestrant at 0.3 μM is defined as 100%; for DC50: 18-22 hours incubation, 50% reduction of ERα expression, single experiment or average of two or more, read-out: MCF-7 ER degradation IC50
Method in brief: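 MCF-7 human ductal carcinoma breast cells were seeded at 3.75×10^4 cells per mL (40 μL per well) in 384 well plates with phenol red free DMEM containing 2 mM L-Glutamine and 5% (v/v) Charcoal/Dextran treated foetal calf serum. After overnight culture, compounds were acoustically dispensed, incubated 18-22 hours, then cells were formaldehyde-fixed and immunostained for ERα.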

SMILES	ER degradation ≥ 90% at 0.3 μM	DC50 [nM]
Cc1ncsc1-c1ccc(CNC(=O)[C@@H]2C[C@@H](O)CN2C(=O)[C@@H](NC(=O)COCCOCCOCCOc2cc(F)c([C@@H]3c4[nH]c5ccccc5c4C[C@@H](C)N3C[C@H](C)CO)c(F)c2)C(C)(C)C)cc1 [Example 101, (2S,4R)-1-((S)-2-(tert-butyl)-14-(3,5-difluoro-4-((1R,3R)-2-((S)-3-hydroxy-2-methylpropyl)-3-methyl-2,3,4,9-tetrahydro-1H-pyrido[3,4-b]indol-1-yl)phenoxy)-4-oxo-6,9,12-trioxa-3-azatetradecanoyl)-4-hydroxy-N-(4-(4-methylthiazol-5-yl)benzyl)pyrrolidine-2-carboxamide]	•	1.8
Cc1ncsc1-c1ccc(CNC(=O)[C@@H]2C[C@@H](O)CN2C(=O)[C@@H](NC(=O)CCCCCCCCOc2cc(F)c([C@@H]3c4[nH]c5ccccc5c4C[C@@H](C)N3CC(C)(C)F)c(F)c2)C(C)(C)C)cc1 [Example 15, (2S,4R)-1-((S)-2-(9-(3,5-Difluoro-4-((1R,3R)-2-(2-fluoro-2-methylpropyl)-3-methyl-2,3,4,9-tetrahydro-1H-pyrido[3,4-b]indol-1-yl)phenoxy)nonanamido)-3,3-dimethylbutanoyl)-4-hydroxy-N-(4-(4-methylthiazol-5-yl)benzyl)pyrrolidine-2-carboxamide]	•	3.9
Cc1ncsc1-c1ccc(CNC(=O)[C@@H]2C[C@@H](O)CN2C(=O)[C@@H](NC(=O)CNCCC(F)(F)CCOc2cc(F)c([C@@H]3c4[nH]c5ccccc5c4C[C@@H](C)N3CC(C)(C)F)c(F)c2)C(C)(C)C)cc1 [Example 131, (2S,4R)-1-((S)-2-(2-((5-(3,5-Difluoro-4-((1R,3R)-2-(2-fluoro-2-methylpropyl)-3-methyl-2,3,4,9-tetrahydro-1H-pyrido[3,4-b]indol-1-yl)phenoxy)-3,3-difluoropentyl)amino)acetamido)-3,3-dimethylbutanoyl)-4-hydroxy-N-(4-(4-methylthiazol-5-yl)benzyl)pyrrolidine-2-carboxamide]	•	0.8
Cc1ncsc1-c1ccc([C@H](C)NC(=O)[C@@H]2C[C@@H](O)CN2C(=O)[C@@H](NC(=O)COCCOCCCCOc2cc(F)c([C@@H]3c4[nH]c5ccccc5c4C[C@@H](C)N3CC(C)(C)F)c(F)c2)C(C)(C)C)cc1 [Example 153, (2S,4R)-1-((S)-2-(2-(2-(4-(3,5-Difluoro-4-((1R,3R)-2-(2-fluoro-2-methylpropyl)-3-methyl-2,3,4,9-tetrahydro-1H-pyrido[3,4-b]indol-1-yl)phenoxy)butoxy)ethoxy)acetamido)-3,3-dimethylbutanoyl)-4-hydroxy-N—((S)-1-(4-(4-methylthiazol-5-yl)phenyl)ethyl)pyrrolidine-2-carboxamide]	••	0.4
Cc1ncsc1-c1ccc(CNC(=O)[C@@H]2C[C@@H](O)CN2C(=O)[C@@H](NC(=O)COCCOCCCCCOc2cc(F)c([C@@H]3c4[nH]c5ccccc5c4C[C@@H](C)N3CC(F)F)c(F)c2)C(C)(C)C)cc1 [Example 167, (2S,4R)-1-((S)-2-(2-(2-((5-(4-((1R,3R)-2-(2,2-Difluoroethyl)-3-methyl-2,3,4,9-tetrahydro-1H-pyrido[3,4-b]indol-1-yl)-3,5-difluorophenoxy)pentyl)oxy)ethoxy)acetamido)-3,3-dimethylbutanoyl)-4-hydroxy-N-(4-(4-methylthiazol-5-yl)benzyl)pyrrolidine-2-carboxamide]	••	0.6
